In this experiment the test system is kinesin-1 light chain KLC1 (anterograde transport) in SH-SY5Y cells. Nature of the experiment: Cy5-KBP kinesin binding probe tracking, live-cell imaging. Format: cell-based, human. As to conditions: for Cy5-KBP Distance, normalized to control / Cy5-KBP Speed, normalized to control: 1 μM PTX or 2.5 μM FTX2, 1a or 1b, mean ± SEM. The text has this:
Building on our ability to chemically modulate MT structure, we next explored how these changes influence signaling patterns involved in MAPs interactions. Given that MTs are key players in intracellular transport – guiding organelles, vesicles and chromosomes via molecular motors like dyneins and kinesins – we assessed the impact of our compounds on transport dynamics in neuroblastoma SH-SY5Y cells. We combined live-cell imaging with previously developed tracking peptides (Figure A): Cy5-DBP, which encompasses the sequence that specifically recognizes Dynein Light Chain LC8 (retrograde transport), and Cy5-KBP, with a sequence that binds to the tetratricopeptide repeat of the kinesin-1 light chain KLC1 (anterograde transport). […] However, this was for a short incubation period (1 to 2.5 h, including imaging time) to avoid mitotic arrest or compromise cell viability. We then assessed particle behavior by measuring mean track displacement and mean track velocity.
Cy5-KBP and Cy5-DBP tracking peptides were synthesized at CIB-Margarita Salas (CSIC), following a published protocol. Briefly, the peptide chains were assembled via solid phase peptide synthesis (SPPS) using fluorenylmethyloxycarbonyl (Fmoc) as N-terminal protecting group and, subsequently labeled with the organic dye cyanine 5 (Cy5) via a maleimide–thiol reaction between the N-terminal cysteine residues of the peptides and the commercially available Cy5-maleimide. The final peptides were purified via reverse phase HPLC, dissolved in DMSO to a final 2.5 mM concentration and stored in small aliquots at −20 °C. SH-SY5Y cells were seeded into μ-Slide 8-wells ibiTreat plates (ibidi, flat polymer coverslip-bottom, tissue culture treated) at a concentration of 35,000 cells/well and incubated for 48 h at 37 °C and 5% CO2. […] After this time, the culture medium was replaced by the drug working solution containing either Cy5-KBP or Cy5-DBP, and the plate was incubated for an additional 15 min at 37 °C and 5% CO2. Then, the culture medium was replaced with drug working solution without labeled peptide and the cells were imaged using a confocal laser scanning microscope Leica TCS SP8 with a 63x oil immersion objective that included a humidified incubation chamber, a CO2 controller and a heating unit. Cy5 dye was excited at 635 nm and the fluorescence emission was collected at 645–690 nm. Images were recorded every 1.793 s for 3 min as 2-layer-z-stacks. For each condition, two to three different fields were imaged in two separate experiments.
Single-peptide trajectories were tracked with the TrackMate plugin from the Fiji package software (https://imagej.net/TrackMate). Particles with an estimated blob diameter of 1–1.5 μm were detected using the Laplacian of Gaussian (LoG) detector and linked with the Linear motion LAP tracker. Only spots that were at a maximum distance of 2 μm were linked. Trajectories with less than 6 spots were discarded since they were probably artifactual, and track mean displacement and track mean velocity were calculated and normalized to control cells. Data were further analyzed with MATLAB to perform a Mean Square Displacement (MSD) analysis to determine the mode of displacement of the peptides followed over time. Briefly, for each trajectory the MSD function was calculated and its log–log representation fitted with a linear function (log(MSD(τ)) = […] x log(τ) + C). MSD curves with an R^2 coefficient <0.8 were removed. The slope (α) of each MSD curve determines the motion type of each particle and particles were classified into: constrained particles (CM) α < 1, Brownian particles (BM) α = 1, and transported particles (TM) α > 1. Two independent experiments were performed using three biological replicates (N = 6). Statistical analyses of normalized track mean displacement and track mean velocity were performed using an unpaired t test with Welch’s correction in GraphPad Prism 8 software. […]

Take `CC(=O)OC1C(=O)C2(C)C(OC(=O)CCCCC(=O)OC3CCc4ccccc43)CC3OCC3(OC(C)=O)C2C(OC(=O)c2ccccc2)C2(O)CC(OC(=O)C(O)C(NC(=O)c3ccccc3)c3ccccc3)C(C)=C1C2(C)C` (stereo not drawn) [1a, 7-O-(6″-O-(2‴,3‴-Dihydroinden-1‴-yl)hexanedioyl) Paclitaxel]: the “Cy5-KBP Distance, normalized to control” value was 0.92 ± 0.01 ratio to control and the “Cy5-KBP Speed, normalized to control” value was 0.95 ± 0.01 ratio to control. Moreover, where the note is “2.5 μM”, the “effect on Cy5-KBP particle tracking” value was “did not affect particle tracking”.

Consider `COc1ccc2c(c1)CC(NC(=O)CCCCCCCC(=O)OC1CC3OCC3(OC(C)=O)C3C(OC(=O)c4ccccc4)C4(O)CC(OC(=O)C(O)C(NC(=O)c5ccccc5)c5ccccc5)C(C)=C(C(OC(C)=O)C(=O)C13C)C4(C)C)CC2` [1b, 7-O-((S)-9″-(7‴-Methoxy-1‴,2‴,3‴,4‴-tetrahydronaphthalen-2‴-yl)amino) −9″-oxononanoyl) Paclitaxel], for which the “Cy5-KBP Distance, normalized to control” value was 0.85 ± 0.01 ratio to control and the “Cy5-KBP Speed, normalized to control” value is 0.87 ± 0.01 ratio to control. Also, the “reduction in kinesin binding probe velocity” value (2.5 μM) is roughly 16%.

As to `CC(=O)O[C@H]1C(=O)[C@]2(C)[C@@H](OC(=O)[C@H](C)NC(=O)c3ccc(-c4c5cc(F)c(=O)cc-5oc5cc(O)c(F)cc45)c(C(=O)O)c3)C[C@H]3OC[C@@]3(OC(C)=O)[C@H]2[C@H](OC(=O)c2ccccc2)[C@]2(O)C[C@H](OC(=O)[C@H](O)[C@@H](NC(=O)c3ccccc3)c3ccccc3)C(C)=C1C2(C)C` [FTX2, Flutax2], the “Cy5-KBP Distance, normalized to control” value was 0.910 ± 0.003 ratio to control and the “Cy5-KBP Speed, normalized to control” value is 0.85 ± 0.01 ratio to control. Further, the “reduction in kinesin binding probe velocity” value (2.5 μM) is roughly 14%.

Source of the values: article PMC13492380, “Dissecting Structural and Functional Determinants of Microtubules Stabilization through Guided Chemical Modulation” (Journal of Medicinal Chemistry, 2026).
